Reference: ChEMBL document CHEMBL3826883, “Discovery of potent and selective inhibitors of human aminopeptidases ERAP1 and ERAP2 by screening libraries of phosphorus-containing amino acid and dipeptide analogues” (Bioorg Med Chem Lett, 2016)

Key:
[1] = biological target: Endoplasmic reticulum aminopeptidase 1 (Homo sapiens, UniProt Q9NZ08); assay: Inhibition of human ERAP1 preincubated for 30 to 60 mins followed by addition of Leu-AMC as substrate measured for 15 mins by spectrofluorimetric method
Chain of Endoplasmic reticulum aminopeptidase 1 (Q9NZ08 whole entry): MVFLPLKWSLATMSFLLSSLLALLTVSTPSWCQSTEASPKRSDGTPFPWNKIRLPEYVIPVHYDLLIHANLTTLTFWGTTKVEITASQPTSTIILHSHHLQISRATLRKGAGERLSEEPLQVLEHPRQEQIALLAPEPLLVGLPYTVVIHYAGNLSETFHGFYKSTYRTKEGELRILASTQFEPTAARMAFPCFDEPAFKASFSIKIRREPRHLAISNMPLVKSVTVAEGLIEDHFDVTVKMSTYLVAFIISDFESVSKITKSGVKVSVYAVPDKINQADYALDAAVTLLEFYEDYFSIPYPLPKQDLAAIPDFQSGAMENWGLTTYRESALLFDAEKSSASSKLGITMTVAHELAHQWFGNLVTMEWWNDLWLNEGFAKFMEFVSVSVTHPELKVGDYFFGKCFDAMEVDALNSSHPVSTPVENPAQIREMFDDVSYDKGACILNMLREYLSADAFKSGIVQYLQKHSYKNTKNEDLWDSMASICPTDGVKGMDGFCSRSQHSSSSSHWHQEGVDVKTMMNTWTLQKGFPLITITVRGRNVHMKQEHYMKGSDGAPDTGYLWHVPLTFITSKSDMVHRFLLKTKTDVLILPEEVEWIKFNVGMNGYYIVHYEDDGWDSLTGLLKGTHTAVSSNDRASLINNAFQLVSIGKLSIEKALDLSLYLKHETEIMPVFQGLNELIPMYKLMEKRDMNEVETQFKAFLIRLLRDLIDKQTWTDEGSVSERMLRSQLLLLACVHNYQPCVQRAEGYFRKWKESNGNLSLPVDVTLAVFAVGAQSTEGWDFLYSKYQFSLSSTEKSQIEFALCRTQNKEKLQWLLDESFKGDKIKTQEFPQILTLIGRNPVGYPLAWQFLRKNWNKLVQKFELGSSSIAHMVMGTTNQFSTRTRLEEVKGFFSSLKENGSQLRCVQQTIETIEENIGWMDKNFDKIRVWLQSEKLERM

[2] = biological target: Endoplasmic reticulum aminopeptidase 2 (Homo sapiens, UniProt Q6P179); assay: Inhibition of human ERAP2 preincubated for 30 to 60 mins followed by addition of Arg-AMC as substrate measured for 15 mins by spectrofluorimetric method
Chain of Endoplasmic reticulum aminopeptidase 2 (Q6P179 whole entry): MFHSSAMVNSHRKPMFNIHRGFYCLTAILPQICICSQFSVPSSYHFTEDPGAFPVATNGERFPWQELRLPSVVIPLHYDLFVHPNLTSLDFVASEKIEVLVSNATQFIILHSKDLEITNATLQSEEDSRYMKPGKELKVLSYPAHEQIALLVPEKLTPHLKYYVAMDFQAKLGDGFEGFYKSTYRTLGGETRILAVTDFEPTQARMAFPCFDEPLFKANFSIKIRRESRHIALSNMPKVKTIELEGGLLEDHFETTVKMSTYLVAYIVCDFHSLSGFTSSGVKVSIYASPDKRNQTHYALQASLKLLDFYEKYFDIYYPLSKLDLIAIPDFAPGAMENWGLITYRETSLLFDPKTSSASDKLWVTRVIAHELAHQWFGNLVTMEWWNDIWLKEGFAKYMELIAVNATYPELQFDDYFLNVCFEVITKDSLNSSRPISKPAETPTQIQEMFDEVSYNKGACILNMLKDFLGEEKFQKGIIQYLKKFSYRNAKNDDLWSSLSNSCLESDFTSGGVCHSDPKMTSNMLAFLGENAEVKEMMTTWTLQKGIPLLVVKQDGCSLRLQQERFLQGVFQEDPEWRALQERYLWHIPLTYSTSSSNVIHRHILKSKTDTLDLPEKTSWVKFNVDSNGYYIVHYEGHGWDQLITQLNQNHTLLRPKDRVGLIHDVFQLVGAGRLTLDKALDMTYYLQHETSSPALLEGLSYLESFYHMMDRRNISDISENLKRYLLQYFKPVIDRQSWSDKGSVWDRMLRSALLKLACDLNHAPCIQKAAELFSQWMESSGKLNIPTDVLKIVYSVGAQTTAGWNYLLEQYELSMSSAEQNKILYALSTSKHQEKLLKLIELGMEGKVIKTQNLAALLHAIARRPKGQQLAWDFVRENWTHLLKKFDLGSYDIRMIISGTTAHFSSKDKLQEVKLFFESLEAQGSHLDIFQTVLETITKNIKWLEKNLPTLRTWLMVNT

[3] = Inhibition of Plasmodium falciparum APN preincubated for 30 mins followed by addition of L-Arg-ACC as substrate measured for 15 to 30 mins by fluorescence analysis

| Compound | Ki [1] | Ki [2] | Ki [3] |
| --- | --- | --- | --- |
| CC(C)C[C@@H](N)P(=O)(O)O | 249 µM | > 250 µM | – |
| Cc1cc(C)cc(CC(CP(=O)(O)C(N)CCc2ccccc2)C(=O)O)c1 (configuration not stated) | > 250 µM | > 250 µM | – |
| NCc1cccc(CC(CP(=O)(O)C(N)CCc2ccccc2)C(=O)O)c1 (configuration not stated) | – | > 250 µM | – |
| NCc1ccc(CC(CP(=O)(O)C(N)CCc2ccccc2)C(=O)O)cc1 (configuration not stated) | – | > 250 µM | – |
| NC(CN1CCCCC1)P(=O)(O)O (configuration not stated) | > 250 µM | – | – |
| NC(CNC1CCCCC1)P(=O)(O)CC(Cc1ccccc1)C(=O)O (configuration not stated) | > 250 µM | – | – |
| CNCC(N)P(=O)(O)O (configuration not stated) | > 250 µM | > 250 µM | – |
| NC(CNC1CCCCCC1)P(=O)(O)CC(Cc1ccccc1)C(=O)O (configuration not stated) | > 250 µM | – | – |
| NC(CNCC1CCCO1)P(=O)(O)O (configuration not stated) | > 250 µM | > 250 µM | – |
| NC(CNCCc1ccccc1)P(=O)(O)O (configuration not stated) | > 250 µM | – | – |
| CCCNCC(N)P(=O)(O)O (configuration not stated) | > 250 µM | > 250 µM | – |
| NC(CN1CCOCC1)P(=O)(O)O (configuration not stated) | > 250 µM | > 250 µM | – |
| CN(C)CCNCC(N)P(=O)(O)O (configuration not stated) | > 250 µM | > 250 µM | – |
| NC(CNCc1ccccc1)P(=O)(O)O (configuration not stated) | > 250 µM | 106 µM | – |
| NC(CNC1CCCCC1)P(=O)(O)O (configuration not stated) | > 250 µM | – | – |
| NCCNCC(N)P(=O)(O)O (configuration not stated) | > 250 µM | > 250 µM | – |
| NCC(N)P(=O)(O)O (configuration not stated) | > 250 µM | – | – |
| CCCCCCNCC(N)P(=O)(O)O (configuration not stated) | > 250 µM | – | – |
| NCc1cccc(CC(CP(=O)(O)C(N)CCc2cccnc2)C(=O)O)c1 (configuration not stated) | – | > 250 µM | – |
| CC(C)C[C@H](N)P(=O)(O)O [LEUCINE PHOSPHONIC ACID] | 5.08 µM | > 250 µM | – |

Continued, in another order:

| Ki [1] | Compound | Ki [2] | Ki [3] |
| --- | --- | --- | --- |
| 19.1 µM | NC(CCc1ccccc1)P(=O)(O)CC(Cc1ccccc1)C(=O)O (configuration not stated) | 0.35 µM | 0.078 µM |
| > 250 µM | CC(NCC(N)P(=O)(O)O)c1ccccc1 (configuration not stated) | > 250 µM | – |
| > 250 µM | NCc1ccc(CNCC(N)P(=O)(O)O)cc1 (configuration not stated) | – | – |
| > 250 µM | CC(C)CNCC(N)P(=O)(O)CC(Cc1ccccc1)C(=O)O (configuration not stated) | – | – |
| > 250 µM | CC(C)(C)c1ccc(CNCC(N)P(=O)(O)O)cc1 (configuration not stated) | – | – |
| > 250 µM | NC1CCCCC1NCC(N)P(=O)(O)O (configuration not stated) | – | – |
| > 250 µM | Nc1ccc(CNCC(N)P(=O)(O)O)cc1 (configuration not stated) | – | – |
| > 250 µM | NC(CNCC1CCNCC1)P(=O)(O)O (configuration not stated) | – | – |
| > 250 µM | NCC(N)P(=O)(O)CC(Cc1ccccc1)C(=O)O (configuration not stated) | – | – |
| > 250 µM | COc1ccc(CCNCC(N)P(=O)(O)CC(Cc2ccccc2)C(=O)O)cc1 (configuration not stated) | – | – |
| > 250 µM | NC(CNC1CCCCCC1)P(=O)(O)O (configuration not stated) | – | – |
| > 250 µM | COc1ccc(CNCC(N)P(=O)(O)O)cc1 (configuration not stated) | – | – |
| > 250 µM | CCCNCC(N)P(=O)(O)CC(Cc1ccccc1)C(=O)O (configuration not stated) | – | – |
| > 250 µM | COc1ccc(CCNCC(N)P(=O)(O)O)cc1 (configuration not stated) | – | – |
| > 250 µM | NC(CNCCN1CCNCC1)P(=O)(O)O (configuration not stated) | – | – |
| 6.47 µM | NC(CCc1ccccc1)P(=O)(O)CC(Cc1ccc(O)cc1)C(=O)O (configuration not stated) | 1.04 µM | – |
| 6.27 µM | N[C@@H](CCc1ccccc1)P(=O)(O)C[C@@H](Cc1ccccc1)C(=O)O (mixture of isomers) | 1.03 µM | – |
